Results reported in patent US7652021B2, “Compounds useful for DPP-IV enzyme inhibition” (Sanofi-Aventis, priority 2003, dated 2010).
Where a name gives a salt, the structure may show the parent alone.

Molecular target: T1, DPP-IV enzyme (solubilized crude extractum from CaCo/Tc-7 cells) (Homo sapiens, UniProt P27487)
T1 construct: solubilized crude extractum from CaCo/Tc-7 cells; endogenous in cells; host or cells: CaCo/Tc-7 cells (solubilized crude extract)
Assay: DPP-IV enzyme inhibitory activity, fluorometric H-Gly-Pro-AMC assay
Type: biochemical
Conditions: H-Gly-Pro-AMC substrate 250 μM final; 60 min preincubation at 37° C.; 30 min reaction at 37° C.; Tris-HCl pH=7.5
Protocol: DPP-IV enzyme inhibitory activties of the compounds with the general formula (I) were determined by the following method: […]
Applied Conditions of the Assay:
The reaction of the DPP-IV enzyme and the H-Gly-Pro-AMC substrate is recorded by the liberation of AMC (7-amino-4-methylcoumarin) at 37° C. in 100 mM Tris-HCl, pH=7.5 (assay buffer). Standard curve of AMC is linear up to 31.25 μM concentration, therefore we used the relative fluorescence unit (RFU) of the AMC formed. It is detected using 360 nm excitation and 465 emmission filters (integration time 30 μs, Gain 25, No. of Flashes 50) by Tecan Spectrofluor Plus plate reader. Under these conditions enzyme reaction is linear for at least 30 min, and the enzyme dependence is linear up to 2.5 μg protein (up to 700 RFU). Using 1-0.8 μg of extracted protein Km for H-Gly-Pro-AMC is 50 μM. Higher than 500 μM substrate concentration caused fluorescent detection problems (inner filter effect) that can be solved by dilution of the samples.
The assay is designed to detect as efficiently as possible the active inhibitors using a 60 min preincubation time at 37° C. The assay is conducted by adding 0.8-1 μg protein extract in 10 μl enzyme sulution (using assay buffer: 100 mM Tris-HCl, pH=7.5) to the wells containing the test compounds in 10 μl volume and the 55 μl assay buffer (65 μl assay buffer in the case of controlls). After the preincubation period, the reaction is started by the addition of 25 μlmM H-Gly-Pro-AMC substrate solution (250 μM final concentration). The final test volume is 100 μl and the test solution contains 1% DMSO coming from the test compounds solution. Reaction time is 30 min at 37° C., and the reaction is stopped by adding 300 μl 1M Na-acetate buffer, pH=4.2. The fluorescence (RFU) of AMC formed is detected using 360 nm excitation and 465 emission filters in Tecan spectrofluor Plus plate reader (30 μs integration time, Gain 25 No. of Flashes 50). Inhibition % are calculated using the RFU of control and RFU of blank.

T1 sequence (P27487 whole entry): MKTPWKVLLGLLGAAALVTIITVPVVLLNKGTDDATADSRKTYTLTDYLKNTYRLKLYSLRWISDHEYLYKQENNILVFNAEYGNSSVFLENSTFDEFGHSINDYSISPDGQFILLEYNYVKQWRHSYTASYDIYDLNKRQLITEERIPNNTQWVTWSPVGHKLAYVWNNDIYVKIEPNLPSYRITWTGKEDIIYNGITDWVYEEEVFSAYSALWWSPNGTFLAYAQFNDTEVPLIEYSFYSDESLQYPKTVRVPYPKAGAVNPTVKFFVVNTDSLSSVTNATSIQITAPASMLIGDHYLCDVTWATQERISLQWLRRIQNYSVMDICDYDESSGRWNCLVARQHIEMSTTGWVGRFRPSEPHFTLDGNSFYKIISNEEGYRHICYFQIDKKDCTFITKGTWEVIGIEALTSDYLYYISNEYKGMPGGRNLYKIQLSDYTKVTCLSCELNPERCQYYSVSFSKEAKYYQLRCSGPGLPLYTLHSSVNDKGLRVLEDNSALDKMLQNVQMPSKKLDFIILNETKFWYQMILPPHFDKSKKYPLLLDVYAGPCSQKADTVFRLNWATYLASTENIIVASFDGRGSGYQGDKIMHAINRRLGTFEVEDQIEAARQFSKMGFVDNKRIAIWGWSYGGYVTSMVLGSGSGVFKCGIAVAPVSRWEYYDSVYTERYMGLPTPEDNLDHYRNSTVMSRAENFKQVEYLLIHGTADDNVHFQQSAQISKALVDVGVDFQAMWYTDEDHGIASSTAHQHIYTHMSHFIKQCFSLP

`N#C[C@H]1COCN1C(=O)CNC12CC3CC(C1)CC(Nc1ncccn1)(C3)C2` [Example 9, (4S)-3-{N-[3-(pyrimidin-2-ylamino)-1-adamantyl]glycyl}-1,3-oxazolidine-4-carbonitrile] and `N#Cc1ccc(CNC23CC4CC(CC(NCC(=O)N5CC(F)(F)C[C@H]5C#N)(C4)C2)C3)cc1` [Example 27, (2S)-1-(N-{3-[(4-cyanobenzyl)amino]-1-adamantyl}glycyl)-4,4-difluoropyrrolidine-2-carbonitrile] are within 1.5-fold of each other in IC50: 21 nM for the first, 16 nM for the second.

`N#C[C@@H]1CCCN1C(=O)CNC1C2CCC1CN(c1ncccn1)C2` (stereo partly drawn) [Example 40, (2S)-1-[N-(3-pyrimidin-2-yl-3-azabicyclo[3.2.1]oct-8-yl)glycyl]pyrrolidine-2-carbonitrile] showed an IC50 of 30 nM.

System: not given
Assay: not given
Conditions: not given

First: N#C[C@@H]1CC(F)(F)CN1C(=O)CNC1C2CCC1CN(c1ncccn1)C2 (stereo partly drawn)
Second: N#C[C@@H]1CCCN1C(=O)CNC1C2CCC1CN(c1ncccn1)C2 (stereo partly drawn) (as salt: hydrochloride) [Example 40, (2S)-1-[N-(3-pyrimidin-2-yl-3-azabicyclo[3.2.1]oct-8-yl)glycyl]pyrrolidine-2-carbonitrile]
The melting point of the first is lower: 50 to 52 °C for the first, 149 to 152 °C for the second.

First: CC1(NCC(=O)N2CC(F)(F)C[C@H]2C#N)CC2CCC(C1)N2c1ncccn1.Cl.Cl (stereo partly drawn)
Second: N#C[C@H]1COCN1C(=O)CNC12CC3CC(C1)CC(Nc1ncccn1)(C3)C2 (as salt: hydrochloride) [Example 9, (4S)-3-{N-[3-(pyrimidin-2-ylamino)-1-adamantyl]glycyl}-1,3-oxazolidine-4-carbonitrile]
The melting point of the first is lower: 169 to 172 °C for the first, 205 to 207 °C for the second.

`N#Cc1ccc(CNC23CC4CC(CC(NCC(=O)N5CC(F)(F)C[C@H]5C#N)(C4)C2)C3)cc1` (as salt: hydrochloride) [Example 27, (2S)-1-(N-{3-[(4-cyanobenzyl)amino]-1-adamantyl}glycyl)-4,4-difluoropyrrolidine-2-carbonitrile] gave a melting point of 226 to 231 °C.

Molecule `Cl.Cl.N#C[C@@H]1CC(F)(F)CN1C(=O)CNC1C2CCC1CN(c1ncccn1)C2` (stereo partly drawn) has a melting point of over 300 °C.
